Source: patent US9637469B2, “Pyridine derivative” (Teijin Pharma Limited, priority 2012, dated 2017)
pIC50: −log10 of the molar value.

Target: T1, human URAT1 (Homo sapiens, UniProt Q96S37)
T1 construct: Full-length cDNA of human URAT1 (hURAT1)
T1 sequence (Q96S37 1-553): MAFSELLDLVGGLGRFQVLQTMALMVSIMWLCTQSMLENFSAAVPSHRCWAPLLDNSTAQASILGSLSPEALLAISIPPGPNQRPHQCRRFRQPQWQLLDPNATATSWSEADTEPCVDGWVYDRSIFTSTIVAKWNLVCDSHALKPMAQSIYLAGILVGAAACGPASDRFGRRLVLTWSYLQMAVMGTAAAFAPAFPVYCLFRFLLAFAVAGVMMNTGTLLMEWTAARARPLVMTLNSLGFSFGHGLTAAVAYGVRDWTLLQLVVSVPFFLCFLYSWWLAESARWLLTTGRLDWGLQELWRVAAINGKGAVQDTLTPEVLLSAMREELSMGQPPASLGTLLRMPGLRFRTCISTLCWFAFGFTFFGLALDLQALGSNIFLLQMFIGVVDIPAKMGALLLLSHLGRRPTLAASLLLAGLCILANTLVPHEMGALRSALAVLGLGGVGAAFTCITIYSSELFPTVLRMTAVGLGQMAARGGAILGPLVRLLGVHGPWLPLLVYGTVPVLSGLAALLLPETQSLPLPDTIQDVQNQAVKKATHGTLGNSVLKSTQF
Assay: Test for inhibition of uric acid transport using human URAT1-expressing cells;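 further: three stars up to 0.2 µM two stars 0.2-2 µM one star 2-20 µM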
Format: cell-based
Details: HEK 293 cells expressing human URAT1; 14C-labeled uric acid 25 μM; uptake 37° C. for 5 min
Method: (1) Preparation of the Test Compound
The test compound was dissolved in DMSO (produced by Sigma) to a concentration of 20 mM and was subsequently used by diluting to desired concentrations.
(2) Test for Inhibition of Uric Acid Transport Using Human URAT1-Expressing Cells;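 further: three stars up to 0.2 µM two stars 0.2-2 µM one star 2-20 µM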
Full-length cDNA of human URAT1 (hURAT1) (produced by OriGene Technologies, Inc., NCBI Reference Sequence: NM 144585) was subcloned into an expression vector, pCMV6-Kan/Neo (produced by OriGene Technologies, Inc.), and hURAT1 gene was transfected into human embryonic kidney-derived cells (HEK 293 cells) by liposome method using Lipofectamine 2000 (produced by Invitrogen Corporation), whereupon HEK 293 cells expressing human URAT1 gene were screened by its Geneticin resistance. By a method similar to the following method, functional expression of human URAT1 gene was confirmed by using transport of ^14C-labeled uric acid into the cells as an index.
The HEK 293 cells expressing human URAT1 were seeded in a 24-well cell culture dish to a density of 3×10^5 cells/mL/well and were cultured in Dulbecco's modified Eagle's medium (D-MEM medium) containing 10% fetal bovine serum at 37° C. for 2 days. Thereafter, the following test for inhibition of uric acid transport was performed.
After the medium was removed by aspiration from each well, the medium was replaced with a solution obtained by substituting NaCl in Hank's Balanced Salt Solution (HBSS) with Na gluconate (hereinafter, HBSS/Na-gluconate) and the cells were preincubated at 37° C. for about 10 minutes. HBSS/Na-gluconate was removed by aspiration and a ^14C-uric acid solution that was warmed at 37° C. in advance containing various concentrations of the Example compound described in (1) and a radioactive ligand (^14C-labeled uric acid; final concentration 25 μM) was added and an uptake reaction was carried out by incubating at 37° C. for 5 min. After the incubation, ^14C-labeled uric acid solution was removed by aspiration and the cells were washed three times with ice-cold HBSS. The HEK 293 cells expressing human URAT1 were lysed in 0.2 mol/L aqueous NaOH (hereafter, the cell sample) and the cell samples were collected. The cell sample and a liquid scintillation liquid, ULTIMA GOLD (produced by PerkinElmer, Inc.) were mixed and the radioactivity was measured by a liquid scintillation counter (Beckman Coulter, Inc.).
The uric acid transport rate of the Example compound at each concentration (% of control uptake) was calculated relative to the radioactivity (radioactivity in human URAT1 expressing HEK 293 cells without addition of the Example compound (DMSO addition)) showing URAT1-specific uric acid transport as 100%, and the concentration (IC50) of the Example compound at which the uric acid transport rate is inhibited by 50% was determined. In addition, the symbols (*, **, and ***) in the table represent the following inhibitory activity values: • IC50≦_ 0.2 μM: *** • 0.2 μM<IC50≦2 μM: ** • 2 μM<IC50≦20 μM: *

Compound	Inhibitory Activity (IC50 of uric acid transport inhibition)
CC(C)c1nc(-c2cccnc2)n(Cc2csc3cccc(Br)c23)c1C(=O)O [Compound A38, 1-((4-bromobenzo[b]thiophen-3-yl)methyl)-4-isopropyl-2-(pyridin-3-yl)-1H-imidazole-5-carboxylic acid]	* * *
Cc1nc(Oc2cccnc2Cl)n(Cc2cc(Cl)ccc2Cl)c1C(=O)O [Compound A253, 2-((2-chloropyridin-3-yl)oxy)-1-(2,5-dichlorobenzyl)-4-methyl-1H-imidazole-5-carboxylic acid]	* * *
Cc1nc(-c2cncc(Cl)c2)n(Cc2cc(C(F)(F)F)ccc2C(F)(F)F)c1C(=O)O [Compound A173, 1-(2,5-bis(trifluoromethyl)benzyl)-2-(5-chloropyridin-3-yl)-4-methyl-1H-imidazole-5-carboxylic acid]	* * *
COc1cccc(-c2nc(C)c(C(=O)O)n2Cc2cc(Cl)ccc2Cl)n1 [Compound A246, 1-(2,5-dichlorobenzyl)-2-(6-methoxypyridin-2-yl)-4-methyl-1H-imidazole-5-carboxylic acid]	* *
Cc1nc(-c2cccnc2)n(Cc2ccccc2Br)c1C(=O)O [Compound A54, 1-(2-bromobenzyl)-4-methyl-2-(pyridin-3-yl)-1H-imidazole-5-carboxylic acid]	* *
CN1CCN(Cc2nc(-c3cncc(Cl)c3)n(Cc3cc(Cl)ccc3Cl)c2C(=O)O)CC1 [Compound A197, 2-(5-chloropyridin-3-yl)-1-(2,5-dichlorobenzyl)-4-((4-methylpiperazine-1-yl)methyl)-1H-imidazole-5-carboxylic acid]	* * *
Cc1cncc(-c2nc(C)c(C(=O)O)n2Cc2cc(Cl)sc2Cl)c1 [Compound A227, 1-((2,5-dichlorothiophen-3-yl)methyl)-4-methyl-2-(5-methylpyridin-3-yl)-1H-imidazole-5-carboxylic acid]	* * *
O=C(O)c1ccc(-c2cccnc2)n1Cc1cccc2cccnc12 [Compound B19, 2-(pyridin-3-yl)-1-(quinolin-8-ylmethyl)-1H-pyrrole-5-carboxylic acid]	* *
CCOC(=O)c1c(C)nc(-c2cccnc2)n1Cc1cccc2ccccc12 [Compound A3, ethyl 4-methyl-1-(naphthalen-1-ylmethyl)-2-(pyridin-3-yl)-1H-imidazole-5-carboxylate]	* *
Cc1cncc(-c2ccc(C(=O)O)n2Cc2cc(Cl)ccc2Cl)c1 [Compound B13, 1-(2,5-dichlorobenzyl)-2-(5-methylpyridin-3-yl)-1H-pyrrole-5-carboxylic acid]	* * *
O=C(O)c1ccc(-c2cccnc2)n1Cc1cccc2cccc(Br)c12 [Compound B6, 1-((8-bromonaphthalen-1-yl)methyl)-2-(pyridin-3-yl)-1H-pyrrole-5-carboxylic acid]	* * *
CCc1cncc(-c2nc(C)c(C(=O)O)n2Cc2cc(Cl)ccc2Cl)c1 [Compound A181, 1-(2,5-dichlorobenzyl)-2-(5-ethylpyridin-3-yl)-4-methyl-1H-imidazole-5-carboxylic acid]	* * *
Cc1ccc(Cn2c(-c3cccnc3)nc(C(C)C)c2C(=O)O)c2ccccc12 [Compound A25, 4-isopropyl-1-((4-methylnaphthalen-1-yl)methyl)-2-(pyridin-3-yl)-1H-imidazole-5-carboxylic acid]	* * *
O=C(O)c1c(C2CC2)nc(-c2cncc(F)c2)n1Cc1cccc2ccccc12 [Compound A153, 4-cyclopropyl-2-(5-fluoropyridin-3-yl)-1-(naphthalen-1-ylmethyl)-1H-imidazole-5-carboxylic acid]	* *
CCc1nc(-c2cccnc2)n(Cc2cccc3ccccc23)c1C(=O)O [Compound A10, 4-ethyl-1-(naphthalen-1-ylmethyl)-2-(pyridin-3-yl)-1H-imidazole-5-carboxylic acid]	* *
Cc1nc(-c2cncc(N3CCCC3)c2)n(Cc2cc(Cl)ccc2Cl)c1C(=O)O [Compound A166, 1-(2,5-dichlorobenzyl)-4-methyl-2-(5-(pyrrolidin-1-yl)pyridin-3-yl)-1H-imidazole-5-carboxylic acid]	* * *
Cc1nc(-c2cncc(Oc3ccccc3)c2)n(Cc2cccc3ccccc23)c1C(=O)O [Compound A130, 4-methyl-1-(naphthalen-1-ylmethyl)-2-(5-phenoxypyridin-3-yl)-1H-imidazole-5-carboxylic acid]	* *
Cc1ncccc1Oc1nc(C)c(C(=O)O)n1Cc1cc(Cl)ccc1Cl [Compound A252, 1-(2,5-dichlorobenzyl)-4-methyl-2-((2-methylpyridin-3-yl)oxy)-1H-imidazole-5-carboxylic acid]	* * *
CC(C)c1nc(-c2cccnc2)n(Cc2csc3ccccc23)c1C(=O)O [Compound A40, 1-(benzo[b]thiophen-3-ylmethyl)-4-isopropyl-2-(pyridin-3-yl)-1H-imidazole-5-carboxylic acid]	* *
Cc1nc(-c2cccnc2)n(Cc2ccc(Cl)c(Cl)c2)c1C(=O)O [Compound A68, 1-(3,4-dichlorobenzyl)-4-methyl-2-(pyridin-3-yl)-1H-imidazole-5-carboxylic acid]	* *
N#Cc1nc(-c2cccnc2)n(Cc2cc(Cl)ccc2Cl)c1C(=O)O [Compound A101, 4-cyano-1-(2,5-dichlorobenzyl)-2-(pyridin-3-yl)-1H-imidazole-5-carboxylic acid]	* * *

Same assay, conditions: HEK 293 cells expressing human URAT1; 14C-labeled uric acid 25 μM; uptake 37° C. for 5 min; read-out: Inhibitory Activity (IC50 of uric acid transport inhibition)

Compound	pIC50
O=C(O)c1c(-c2ccncc2)nc(-c2cccnc2)n1Cc1cc(Cl)ccc1Cl [Compound A95]	4.70 to 5.70
Cc1nc(-c2ccncc2)n(Cc2cccc3ccccc23)c1C(=O)O [Compound A239]	4.70 to 5.70
COc1ccccc1Oc1cncc(-c2nc(C)c(C(=O)O)n2Cc2cccc3ccccc23)c1 [Compound A131]	4.70 to 5.70
Cc1nc(-c2cccnc2)n(Cc2ccccc2F)c1C(=O)O [Compound A48]	4.70 to 5.70
Cc1nc(-c2cnc3ccccc3c2)n(Cc2cccc3ccccc23)c1C(=O)O [Compound A66]	4.70 to 5.70
Cc1cccc(Cn2c(-c3cccnc3)nc(C)c2C(=O)O)c1 [Compound A58]	4.70 to 5.70
Cc1ccc2ccccc2c1Cn1c(-c2ccccn2)nc(C)c1C(=O)O [Compound A241]	4.70 to 5.70
